Tests used:
K562 = test: Cytotoxicity on K562 cancer cell line; format: cell-based; conditions: Homo sapiens; K562 chronic myelogenous leukemia; 96 h; 0.01-100 μM
Experimental: (§1) The effect of the compounds described herein on tumor cells was determined by the assay described by Latham et al., Oncogene 12:827-837 (1996). Tumor cells K562 (chronic myelogenous leukemia; leukemia cell line +ve for Bcr-Abl) or DU145 (prostate cancer) were plated in 12-well dishes at a cell density of 2.5×10^4 cells per well. The plated cells were treated 24 h. later with a DMSO solution of a compound as described herein at multiple concentrations ranging from 0.01 μM to 100 μM. The plates were examined 96 h. later under an inverted microscope, Olympus CK-2 using a 10× objective, and compound activity was noted by physical observation. When necessary, the total number of viable cells was determined by trypsinizing the wells and counting the number of viable cells, as determined by trypan blue exclusion, using a hemacytometer.

DU145 = test: Cytotoxicity on DU145 cancer cell line; format: cell-based; conditions: Homo sapiens, DU-145; DU145 prostate cancer; 96 h; 0.01-100 μM
Experimental: as §1

Structure (SMILES)	IC50 (K562) [µM]	IC50 (DU145) [µM]
COc1ccc(S(=O)(=O)/C=C/c2cnc(Nc3ccc(N4CCN(C)CC4)cc3)nc2Nc2ccn(C)n2)cc1 [Compound 15q, (E)-5-{2-[(4-Methoxyphenyl)sulfonyl]vinyl}-N^4-(1-methyl-1H-pyrazol-3-yl)-N^2-[4-(4-methylpiperazin-1-yl)phenyl]pyrimidine-2,4-diamine]	< 1	1 to 25
CCN1CCN(c2ccc(Nc3ncc(/C=C/C#N)c(NCC4CC4)n3)cc2)CC1 [Compound 8t, 3-{4-[(Cyclopropylmethyl)amino]-2-[4-(4-ethylpiperazin-1-yl)phenylamino]pyrimidin-5-yl}acrylonitrile]	< 1	< 1
CNc1nc(Nc2ccc3[nH]cnc3c2)ncc1/C=C/S(=O)(=O)c1ccc(F)cc1F [Compound 15n, (E)-N^2-(1H-Benzo[d]imidazol-5-yl)-5-{2-[(2,4-difluorophenyl)sulfonyl]vinyl}-N^4-methylpyrimidine-2,4-diamine]	1 to 25	1 to 25
Cn1ccc(Nc2nc(Nc3ccc(N4CCOCC4)cc3)ncc2/C=C/S(=O)(=O)c2ccc(F)cc2F)n1 [Compound 15t, (E)-5-{2-[(2,4-Difluorophenyl)sulfonyl]vinyl}-N-(1-methyl-1H-pyrazol-3-yl)-N^2-(4-morpholinophenyl)pyrimidine-2,4-diamine]	1 to 25	1 to 25
CNc1nc(Nc2ccc(N3CCN(C)CC3)cc2)ncc1/C=C/S(=O)(=O)c1ccc(F)cc1F [Compound 15d, (E)-5-{2-[(2,4-Difluorophenyl)sulfonyl]vinyl}-N^4-methyl-N^2-[4-(4-methylpiperazin-1-yl)phenyl]pyrimidine-2,4-diamine]	1 to 25	1 to 25
N#C/C=C/c1cnc(NCc2ccccc2)nc1NC1CCCC1 [Compound 8p, 3-[2-(Benzylamino)-4-(cyclopentylamino)pyrimidin-5-yl]acrylonitrile]	25 to 50	25 to 50
CNc1nc(Nc2ccc3[nH]ccc3c2)ncc1/C=C/S(=O)(=O)c1ccc(F)cc1F [Compound 15a, 5-{2-[2,4-(Difluorophenyl)sulfonyl]vinyl}-N^2-(1H-indol-5-yl)-N^4-methylpyrimidine-2,4-diamine]	1 to 25	1 to 25
COc1ccc(Nc2ncc(/C=C/C#N)c(NCC3CC3)n2)cc1 [Compound 8s]	1 to 25	1 to 25
CNc1nc(Nc2ccc(N3CCN(C)CC3)cc2)ncc1/C=C/C#N [Compound 8b, 3-{4-Methylamino-2-[4-(4-methylpiperazin-1-yl)-phenylamino]pyrimidin-5-yl}acrylonitrile]	< 1	1 to 25
CCN1CCN(c2ccc(Nc3ncc(/C=C/C#N)c(NC4CCCC4)n3)cc2)CC1 [Compound 8o, 3-{4-Cyclopentylamino-2-[4-(1-ethylpiperazin-4-yl)-phenylamino]-pyrimidin-5-yl}acrylonitrile]	< 1	< 1
CNc1nc(Nc2ccc3[nH]ncc3c2)ncc1/C=C/S(=O)(=O)c1ccc(F)cc1F [Compound 15i, (E)-5-{2-[(2,4-Difluorophenyl)sulfonyl]vinyl}-N^2-(1H-indazol-5-yl)-N-methylpyrimidine-2,4-diamine]	1 to 25	1 to 25
CNc1nc(Nc2ccc3cc[nH]c3c2)ncc1/C=C/S(=O)(=O)c1ccc(F)cc1F [Compound 15c, 5-{2-[2,4-(Difluorophenyl)sulfonyl]vinyl}-N^2-(1H-indol-6-yl)-N^4-methylpyrimidine-2,4-diamine]	1 to 25	1 to 25
COc1ccc(S(=O)(=O)/C=C/c2cnc(N3CCOCC3)nc2NC2CCCC2)cc1 [Compound 15o, (E)-N-Cyclopentyl-5-{2-[(4-methoxyphenyl)sulfonyl]vinyl}-2-morpholinopyrimidin-4-amine]	1 to 25	1 to 25
CNc1nc(Nc2ccc(OC)cc2)ncc1/C=C/S(=O)(=O)c1ccc(F)cc1F [Compound 15f, (E)-5-{2-[(2,4-Difluorophenyl)sulfonyl]vinyl}-N^2-(4-methoxyphenyl)-N^4-methylpyrimidine-2,4-diamine]	25 to 50	25 to 50
